Experimental data from patent US6482815B1 (priority 1999, dated 2002).
pIC50: −log10 of the molar value. Like-named read-outs stand apart in the source and are kept apart here.

Key:
[1] = system: NALM-6; experiment: cells; format: cell-based; settings: Homo sapiens, NALM-6, read-out: NALM-6 IC50
[2] = system: MOLT-3; experiment: cells; format: cell-based; settings: Homo sapiens, MOLT-3, read-out: MOLT-3 IC50
[3] = system: ALL1; experiment: cells; format: cell-based; settings: Homo sapiens, read-out: ALL1 IC50
[4] = system: RS4;11; experiment: cells; format: cell-based; settings: Homo sapiens, RS4-11, read-out: RS4;11 IC50
[5] = system: NALM-6; experiment: Anti-proliferative activity (colony counts), NALM-6; format: cell-based, human
Excerpt: (§1) The dose-responsive anti-proliferative activity of various organic arsenic acid substituted compounds against leukemic cell lines (NALM-6 and MOLT-3) is shown below in Table 3. FIGS. 3A-3F show dose response curves in ALL1, NALM-6, and MOLT-3 cells.

[6] = system: MOLT-3; experiment: Anti-proliferative activity (colony counts), MOLT-3; format: cell-based, human
Excerpt: as §1

[7] = system: NALM-6; experiment: In situ detection of apoptosis (nick-end-labeling, ApopTag), NALM-6; format: cell-based, human; settings: NALM-6, WHI-P381 2 μg/ml, 36 hour incubation (FIG. 1B)
Method: (§2) Assay for apoptosis was performed by the in situ nick-end-labeling method using an ApopTag in situ detection kit (Oncor, Gaithersburg, Md.) according to the manufacturer's recommendations. Exponentially growing cells (NALM-6 and MOLT-3) were seeded in 6-well tissue culture plates at a density of 50×10^4 cells/well and cultured for 36 hours at 37° C. in a humidified 5% CO2 atmosphere. The supernatant culture medium was carefully aspirated and replaced with fresh medium alone or fresh medium containing WHI-P381 at a concentration of 2 μg/ml.
(§3) After a 36 hour incubation at 37° C. in a humidified 5% CO2 incubator, the supernatants were carefully aspirated and the cells were treated for 1-2 minutes with 0.1% trypsin. The detached cells were collected into a 15 ml centrifuge tube, washed with medium and pelleted by centrifugation at 1000 rpm for 5 minutes. Cells were resuspended in 50 μl of PBS, transferred to poly-L-lysine coated coverslips and allowed to attach for 15 minutes. The cells were washed once with PBS and incubated with equilibration buffer for 10 minutes at room temperature.
(§4) After removal of the equilibration buffer, cells were incubated for 1 hour at 37° C. with the reaction mixture containing terminal deoxynucleotidyl transferase (TdT) and digoxigenin-11-UTP for labeling of exposed 3′-hydroxyl ends of fragmented nuclear DNA. […]

[8] = system: MOLT-3; experiment: In situ detection of apoptosis (nick-end-labeling, ApopTag), MOLT-3; format: cell-based, human; settings: MOLT-3, WHI-P381 2 μg/ml, 36 hour incubation (FIG. 1D)
Method: as §2, §3, §4

[9] = system: BT20
[10] = system: BT20; experiment: cells; settings: Homo sapiens, BT-20, read-out: BT20 IC50
[11] = system: leukemic cell lines (NALM-6, MOLT-3, ALL1, RS4;11); experiment: cells; settings: Homo sapiens, read-out: IC50 values in leukemic cell lines
[12] = system: primary leukemic cells; experiment: MTT cytotoxicity against primary leukemic cells; settings: cells from 5 leukemia patients, FIGS. 4A-4E
[13] = system: NALM-6 cells; experiment: MTT cytotoxicity over 1-4 days versus arsenic trioxide, NALM-6; settings: for pIC50: Homo sapiens
[14] = NALM-6, concentration 0.1 (mM as printed)
[15] = NALM-6, concentration 1 (mM as printed)
[16] = NALM-6, concentration 10 (mM as printed)
[17] = NALM-6, concentration 100 (mM as printed)
[18] = MOLT-3, concentration 0.1 (mM as printed)
[19] = MOLT-3, concentration 1 (mM as printed)
[20] = MOLT-3, concentration 10 (mM as printed)
[21] = MOLT-3, concentration 100 (mM as printed)

In the case of CSc1nccc(Nc2ccccc2[As](=O)(O)O)n1 [WHI-P381, 2-Methylthio4-(2′-phenylarsenic acid)-aminopyrimidine], the pIC50 [1] was > 5.72, the pIC50 [2] was > 5.72 and the pIC50 [3] was > 5.72. The pIC50 [4] was > 5.72, the “% Inhibition” value [5, 14] was 100% and the “Mean No. of Colonies/10^6 Cells” value [5, 14] was 0 Colonies/10^6 Cells. The “% Inhibition” value [5, 15] was 100%, the “Mean No. of Colonies/10^6 Cells” value [5, 15] was 0 Colonies/10^6 Cells and the “% Inhibition” value [5, 16] was 100%. For the same compound, the “Mean No. of Colonies/10^6 Cells” value [5, 16] was 0 Colonies/10^6 Cells, the “% Inhibition” value [5, 17] was 100% and the “Mean No. of Colonies/10^6 Cells” value [5, 17] was 0 Colonies/10^6 Cells. The “% Inhibition” value [6, 18] was 70.2%, the “Mean No. of Colonies/10^6 Cells” value [6, 18] was 429(202, 656) Colonies/10^6 Cells and the “% Inhibition” value [6, 19] was 100%. The “Mean No. of Colonies/10^6 Cells” value [6, 19] was 0 Colonies/10^6 Cells, the “% Inhibition” value [6, 20] was 100% and the “Mean No. of Colonies/10^6 Cells” value [6, 20] was 0 Colonies/10^6 Cells. For the same compound, the “% Inhibition” value [6, 21] was 100%, the “Mean No. of Colonies/10^6 Cells” value [6, 21] was 0 Colonies/10^6 Cells and the “apoptosis: fluorescence versus untreated cells” value [7] was “much greater Fluorescence”. For the same compound, the “apoptosis: fluorescence versus untreated cells” value [8] was “much greater Fluorescence”, the melting point was 225 to 228 °C and the “cytotoxic against the breast cancer cell line BT20 (in words)” value [9] was “cytotoxic”. The pIC50 [10] was 4.76, the pIC50 [11] was ≥ 5.72 and the “cytotoxic activity against primary leukemic cells (in words)” value [12] was “susceptible to the cytotoxic effects”. It also gave a pIC50 ([13]; NALM-6, 24 h, read-out: Cytotoxicity against NALM-6 cells IC50, Day 1) of 5.69, a pIC50 ([13]; NALM-6, 48 h, read-out: Cytotoxicity against NALM-6 cells IC50, Day 2) of 6.07 and a pIC50 ([13]; NALM-6, 72 h, read-out: Cytotoxicity against NALM-6 cells IC50, Day 3) of 6.15. For the same compound, the pIC50 ([13]; NALM-6, 96 h, read-out: Cytotoxicity against NALM-6 cells IC50, Day 4) was 6.17 and the “cytotoxicity compared with arsenic trioxide (in words)” value ([13]; NALM-6, 0.07 μM to 5 μM, 1-4 days, FIGS. 2A-2D) was “more cytotoxic than arsenic trioxide”.
